One series concerns A2780 cells. Description: CCK-8 cytotoxicity assay, A2780. In kind it is cell-based, human. The note with it: CCK-8, 24 h. An excerpt: (§1) However, despite chemotherapy, many patients die of ovarian cancer recurrence. Inflammatory mediators such as IL-6 and several other cytokines influence drug resistance and recurrence in ovarian cancer.
(§2) The human epithelial ovarian cancer cell lines SKOV3 and A2780 were purchased from the Korean Cell Line Bank (KCLB, Seoul, Republic of Korea) and the European Collection of Cell Cultures (ECACC, Wiltshire, UK), respectively. The cisplatin-resistant A2780 (A2780-cis) and paclitaxel-resistant SKOV3 (SKOV3-TR) cells were obtained from Yonsei University (Institute of Women’s Life Medical Science, Division of Gynecological Oncology, Republic of Korea). SKOV3, SKOV3-TR, A2780, and A2780-cis cells were cultured in the RPMI-1640 medium (Welgene, Daegu, Republic of Korea). SKOV3-TR and A2780-cis cells were cultured in 100 nM paclitaxel (Cayman Chemical Company, Ann Arbor, MI, USA) and 1 µM cisplatin (Dong-A Pharmaceutical Co., Seoul, Republic of Korea), respectively. All the culture media were supplemented with 10% (v/v) fetal bovine serum and 1% penicillin or streptomycin (Gibco-BRL, Gaithersburg, MD, USA), and the cells were maintained at 37 °C in a humidified atmosphere of 5% CO2 and 95% air. Each culture medium was replaced with a fresh medium every 2–3 days.
(§3) A CCK-8 assay was performed to assess cytotoxicity. After seeding 5 × 10^5 cells/300 µL in 48-well plates, the cells were treated with the isolated compounds at 1, 5, 10, 20, 40, and 60 μM concentrations for 24 h. For the CCK-8 analysis, 30 μL of the CCK-8 solution (Dojindo, Kumamoto, Japan) was added to each well, allowed to react for 1 h, and then, the optical density value was measured at 450 nm using an ELISA microplate reader (Epoch, BioTek Instruments, Winooski, VT, USA). All the experiments were performed in triplicates. The IC50 values were calculated from a log([drug]) versus normalized response curve fit using GraphPad Prism version 5.00 for Windows (GraphPad Software, San Diego, CA, USA).
For orientation: Formazan colour is commonly taken as a measure of viable cells.

Series [1] has as its system paclitaxel-resistant SKOV3 (SKOV3-TR) cells. Description: CCK-8 cytotoxicity assay, SKOV3-TR. It is filed as cell-based. The note with it: Homo sapiens, SKOV3TR, CCK-8, 24 h.
From the text: as §1, §2, §3

The test system of series [2] is cisplatin-resistant A2780 (A2780-cis) cells. Put plainly: CCK-8 cytotoxicity assay, A2780-cis. It is filed as cell-based. The note with it: Homo sapiens, A2780cis, CCK-8, 24 h.
From the text: as §1, §2, §3

For series [3], the system named is IL-6 activity in HEK-Blue™ IL-6 cells. Put plainly: IL-6 inhibition bioassay using HEK-Blue IL-6 cells (STAT3-inducible SEAP reporter, QUANTI-Blue). The note with it: for EC50: 10 ng/mL IL-6, 24 h, SEAP readout, read-out: EC50 (IL-6 inhibitory activity); for inhibition of IL-6 activity: 10 ng/ml hIL-6, 24 h (Figure S22). It is filed as cell-based, human. The procedure:
We isolated eighteen compounds from P. attenuatum and assessed their inhibitory effects on IL-6 activity using the HEK-Blue™ IL-6 cell line. As the HEK-Blue™ IL-6 cells were transfected with a reporter gene expressing STAT3-inducible secreted embryonic alkaline phosphatase (SEAP), STAT3 was activated, and SEAP was produced when the cells were stimulated with IL-6. The extent of the inhibition of IL-6 downstream signaling by these compounds was assessed in vitro using bazedoxifene (gp130 inhibitor) as a positive control in the HEK-Blue™ IL-6 cells. Bazedoxifene is a newly developed third-generation indole-based estrogen receptor (ER) ligand used in the treatment of postmenopausal osteoporosis, also known as gp130 inhibitor.
The cells were treated with increasing concentrations of the eighteen isolated compounds (0, 0.1, 1, 5, 10, 50, and 100 μM) in the presence of 10 ng/mL IL-6.
(§4) The HEK-Blue™ IL-6 cells purchased from InvivoGen (San Diego, CA, USA) were used to seed 3 × 10^4 cells/200 µL in a 96-well plate. Each well was treated with different concentrations (0, 0.1, 1, 5, 10, 50, and 100 μM) of the isolated compounds. Recombinant human IL-6 (BioLegend, San Diego, CA, USA) was administered at 10 ng/mL. After 24 h, 20 μL of the cell suspension was added to 180 μL of QUANTI-Blue™ solution (InvivoGen, San Diego, CA, USA) in a fresh 96-well plate. After incubation at 37 °C for 2 h, the absorbance was measured spectrophotometrically (Epoch, BioTek Instruments, Winooski, VT, USA) at 635 nm. The EC50 values were calculated from a log([drug]) versus normalized response curve fit using GraphPad Prism version 5.00 for Windows (GraphPad Software, San Diego, CA, USA). The CC50 values were calculated from extrapolated concentration–response curves plotted with GraphPad Prism version 5.0 for Windows (GraphPad Software, San Diego, CA, USA) using inhibitory percentages versus the drug concentration logarithm.

Another series relates to SKOV3 cells. Description: CCK-8 cytotoxicity assay, SKOV3. In kind it is cell-based, human. The note with it: CCK-8, 24 h.
From the text: as §1, §2, §3

The nature of series [4]: Cytotoxicity (CC50) in HEK-Blue IL-6 cells. It is filed as cell-based. The note with it: human, from extrapolated concentration-response curves. The procedure: as §4
[5] abbreviates: Homo sapiens, HEK-Blue IL-6, 24 h.

Read-outs that look alike come from different tables or passages of the source.

For orientation: IC50 means the concentration that inhibits the measured activity by half. Read a high IC50 as weaker potency. Usually EC50 stands for the concentration at which the effect is half-maximal. A word on the CC50: it is the concentration at which the toxic effect on the cells reaches its halfway point. As for `Cc1c(-c2ccc(O)cc2)n(Cc2ccc(OCCN3CCCCCC3)cc2)c2ccc(O)cc12` [Bazedoxifene, bazedoxifene, reference compound], the IC50 in the series on A2780 cells (Homo sapiens, A2780, 24 h) is 8.2 ± 1.77 µM; in series [1] it was 20.32 ± 0.2 µM; in series [2], 33.8 ± 0.15 µM; in the series with SKOV3 cells (Homo sapiens, SK-OV-3, 24 h) it was 7.25 ± 0.62 µM. Besides, the entries for the “TI (therapeutic index, CC50/EC50)” value in series [3] and in series [3] (listed as bazedoxifene) were 2.14 ± 0.78 and 2.14, respectively. In addition, the values for the concentration for a half-maximal effect (EC50) in series [3] and in series [3] (setting [5]) were 1.91 ± 0.43 µM and 1.91 ± 2.84 µM, respectively. Besides, the CC50 at 24 h in series [4] was 4.07 ± 0.35 µM.
As to `CC(=O)/C=C/[C@@]1(O)C(C)=CC(=O)CC1(C)C` [Compound 11, (6S)-dehydrovomifoliol], the half-maximal inhibitory concentration (IC50) with A2780 cells was 9.8 ± 0.11 µM; with A2780 cells (Homo sapiens, A2780, 24 h), ~10 µM; in series [1], 19.9 ± 0.22 µM; in series [2], 14.4 ± 0.21 µM; in the series on SKOV3 cells, 10.7 ± 0.14 µM; in the series with SKOV3 cells (Homo sapiens, SK-OV-3, 24 h) it was ~10 µM. Moreover, the “inhibition of IL-6 activity” value in series [3] is given as “approximately 50%”. Besides, the 50% effective concentration (EC50) in series [3] (setting [5]) was 2.12 ± 0.04 µM. Moreover, the CC50 at 24 h in series [4] is 13.72 ± 0.11 µM.
On to `CC1(C)C[C@@H](O)C[C@@]2(C)OC(=O)C=C12` [Compound 12, (-)-loliolide], for which the IC50 in the series with A2780 cells was 8.62 ± 0.1 µM; with A2780 cells (Homo sapiens, A2780, 24 h), ~10 µM; in series [1], 6.44 ± 0.1 µM; in series [2], 16.6 ± 0.18 µM; with SKOV3 cells it was 10.7 ± 0.31 µM; with SKOV3 cells (Homo sapiens, SK-OV-3, 24 h), ~10 µM. Moreover, the “inhibition of IL-6 activity” value in series [3] is on record as “approximately 50%”. For the same molecule, in series [3] (setting [5]), the concentration giving a half-maximal response (EC50) is 0.91 ± 0.04 µM. In addition, the 50% cytotoxic concentration (CC50) at 24 h in series [4] was 10.6 ± 0.1 µM.
For the molecule `COc1ccc(C[C@H]2COC(=O)[C@@H]2Cc2ccc(OC)c(OC)c2)cc1OC` [Compound 4, (-)-dimethylmatairesinol], the IC50 is 20.6 ± 0.25 µM in the series on A2780 cells (Homo sapiens, A2780, 24 h); 33 ± 0.5 µM in series [1]; 16.9 ± 0.19 µM in series [2]; 20.04 ± 0.18 µM in the series on SKOV3 cells (Homo sapiens, SK-OV-3, 24 h). The “inhibition of IL-6 activity” value in series [3] is listed as “approximately 50%”. In series [3] (setting [5]), the half-maximal effective concentration (EC50) turned out to be 4.06 ± 0.07 µM. For the same molecule, the cytotoxic concentration (CC50) at 24 h in series [4] was 22.6 ± 0.25 µM.
As to `O=c1cc(-c2ccc(O)cc2)oc2c(C3OC(CO)C(O)C(O)C3OC3OCC(O)(CO)C3O)c(O)cc(O)c12` (stereo not drawn) [Compound 17, ficuflavoside], the IC50 with A2780 cells (Homo sapiens, A2780, 24 h) amounted to 21.8 ± 0.45 µM; in series [1], 40.3 ± 0.85 µM; in series [2] it was 41 ± 0.63 µM; in the series on SKOV3 cells (Homo sapiens, SK-OV-3, 24 h), 26.6 ± 0.3 µM. In addition, in series [3], the “inhibition of IL-6 activity” value was “approximately 50%”. For the same molecule, the EC50 in series [3] (setting [5]) came out at 1.31 ± 0.05 µM. In addition, the CC50 at 24 h in series [4] was 32.5 ± 0.45 µM.
Consider `COc1ccc(CC2=C(Cc3ccc4c(c3)OCO4)C(=O)NC2OC)cc1OC` (stereo not drawn) [Compound 3, piperimide III], for which the IC50 in the series with A2780 cells (Homo sapiens, A2780, 24 h) turned out to be 17.5 ± 0.19 µM; in series [1] it was 41 ± 1.18 µM; in series [2], 40.5 ± 1.11 µM; with SKOV3 cells (Homo sapiens, SK-OV-3, 24 h), 15.76 ± 0.15 µM. Also, the “inhibition of IL-6 activity” value in series [3] is recorded as “approximately 50%”. The EC50 in series [3] (setting [5]) is 3.52 ± 0.14 µM. Moreover, the CC50 at 24 h in series [4] was 28.7 ± 0.19 µM.
